These results are taken from paper PMC7918775, “Quality by Design Applied Development of Immediate-Release Rabeprazole Sodium Dry-Coated Tablet” (Pharmaceutics, 2021).

Data set [1] can be described thus: Stability of APIs in solution at various pH (content, appearance). It counts as physicochemical.
A short description of data set [2]: Rabeprazole sodium/excipient compatibility study (appearance, impurities by HPLC). It counts as physicochemical. To be noted: 1:1 (w/w) mixtures, HPLC impurity test; threshold 3.5%. The method, then: (§1) The latter reflects the proportions of APIs in each commercialized tablet. The prepared samples were stored in a stability chamber for 4 weeks at room temperature of 25 ± 2 °C/ 60 ± 5% RH and under acceleration conditions of 40 ± 2 °C/ 75 ± 5% RH, respectively. […] If none were detected, an additional impurity test was performed to confirm compatibility.

A short description of data set [3]: physchem. To be noted: water, thermodynamic from solid. The method, then: The solubility of each component in deionized water, solvents (ethanol, methanol), citric acid/sodium citrate buffer, and pH buffer was evaluated.
Each vial contained 10 mg rabeprazole sodium, and 200 µL of each solvent was slowly added. […] The solutions were filtered and then diluted 2000× to measure the quantity of rabeprazole sodium dissolved in the solution. Equilibrium or final rabeprazole sodium solubility was calculated from the HPLC peak. Peak area of sample solution × 100 × 100/Average of standard solution peak area ×1000

Data set [4] can be described thus: API-API compatibility study (impurities by HPLC). It counts as physicochemical. The method, then: as §1
The conditions of data set [5]: cited from earlier work.
The conditions of data set [6]: cited from earlier work. This is another data set of the same source.
How the values of data set [7] were obtained:
The solution was then stirred at 37 ± 2 °C for 1 h and filtered by polyvinylidene fluoride (PVDF) membrane filter. Next, 50 mL of the filtrate was obtained and titrated with hydrochloric acid with 0.1 M sodium hydroxide solution (pH measurement method) with an endpoint of pH 3.5.

Entries after “also recorded” stand apart in the source; their conditions may differ. Where two headings read alike, the source gives them in different places.

`COCCCOc1ccnc(C[S+]([O-])c2nc3ccccc3[nH]2)c1C` (stereo not drawn) [Rabeprazole sodium]: the “Rabeprazole sodium content measured according to pH” value in data set [1] (pH 1.2 to 6.0) was 30 to 60%. Besides, in data set [1] (pH 8.0), the “Time stable in solution” value is on record as ~ 26 h. In data set [1] (range of pH 1.2–12.0), the Appearance in buffers result is on record as “changed in buffers with pH < 7.0; also recorded: transparent in buffers with pH > 8.0”. The “Concentration of decomposition products” value in data set [2] is listed as “no decomposition products were formed”. Also, the results for the solubility in data set [3] and in data set [5] (Water) were over 110 mg/mL and 10 mg/mL (Water), respectively. Besides, the “Impurities, 4 Weeks” value was 1.31% in data set [4] (Accelerated Condition 40 °C/75% RH) and 0.07% in data set [4] (Room Temperature 25 °C/60% RH). In data set [4] (initial), the “Impurities, Initial” value came out at 0.06%. In addition, the Decomposition half-life in data set [5] (aqueous solutions with pH < 3.0) is recorded as under 10 min. Besides, in data set [5], the “pKa (Strongest Acidic)” value is given as 9.35. Moreover, the “pKa (Strongest Basic)” value in data set [5] is recorded as 4.24. Moreover, the “Time to reach maximum plasma concentration” value in data set [6] (Adolescents, Tablets) was 3.3 to 4.1 h; in data set [6] (Adults, Capsule), 1 to 6.5 h; in data set [6] (Adults, Tablets), 2 to 5 h. In addition, the Bioavailability in data set [6] (Tablets) is given as about 52%. Also, the entries for the “Half-life (dose dependent)” value in data set [6] (adolescents) and in data set [6] (adults) were 33 to 60 min and 60 to 120 min, respectively. Further, the Action onset time in data set [6] (in vivo) is reported as at most 1 h. In addition, the Duration in data set [6] (in vivo) is recorded as 24 h. For the same compound, the “Excretion: urine” value in data set [6] (in vivo) is given as 90%. Also, the Metabolism result in data set [6] (in vivo) is “metabolized by CYP3A and 2C19 to inactive metabolites in the liver”. The Protein binding rate in data set [6] (in vivo) is reported as 96.3%. For the same compound, the “Delay of absorption by food” value in data set [6] (oral, with food) is recorded as “up to 4 h or more”. Besides, in data set [6] (oral), the “Absorption: Oral” value is “well absorbed within 1 h”. Further, the Half-life increase in data set [6] (patients with mild to moderate hepatic impairment) is reported as 2–3 times.
For the compound `O=C([O-])O.[Na+]` [Sodium bicarbonate], the “Acid-neutralizing capacity (0.1 M HCl consumption)” value in data set [7] (200 mg sodium bicarbonate) is given as 38 mL; in data set [7] (300 mg sodium bicarbonate), 42 mL; in data set [7] (400 mg sodium bicarbonate), 45 mL; in data set [7] (500 mg sodium bicarbonate) it was 49 mL; in data set [7] (600 mg sodium bicarbonate) it was 57 mL; in data set [7] (700 mg sodium bicarbonate), 68 mL. Further, the “Acid-neutralizing capacity (0.1 M HCl consumption)” value in data set [7] (800 mg sodium bicarbonate) came out at 79 mL; in data set [7] (900 mg sodium bicarbonate) it was 84 mL; in data set [7] (1000 mg sodium bicarbonate) it was 89 mL. Moreover, in data set [5] (carbonic acid), the “PKa (carbonic acid)” value is reported as 6.351. In addition, the PKa in data set [5] is 10.329. The figures for the Duration in data set [6] (Intravenous (IV)) and in data set [6] (oral) were 0.13 to 0.167 h and 1 to 3 h, respectively. Besides, the “Onset time of action” value in data set [6] (Intravenous (IV)) is “fast”; in data set [6] (oral), 15 min. Besides, in data set [6] (in vivo), the “Excretion: urine” value is reported as under 1%.

A word on the solubility: it is how much of the substance goes into solution per volume.
